Data from PMC7501440 (Heliyon, 2020).
Like-named read-outs stand apart in the source and are kept apart here.

Columns and labels:
[1] = biological target: T1, Human acetycholinesterase (hAChE) (Homo sapiens, UniProt P22303); assay: hAChE inhibition assay, modified Ellman's colorimetric protocol; type: biochemical
T1 construct: purchased Sigma
Experimental: (§1) Human acetycholinesterase (hAChE) activities were determined with a slight modification of Ellman's colorimetric protocol. […] The bioactivity was determined by evaluating the hydrolysis rate of acetylthiocholine iodide (ATCI, 0.1 mM) with the final volume of 300 μL with a phosphate buffer of 180 μL of 100 mM, pH 7.3 and 2 mM DTNB 0.09U of hAChE (Sigma) were applied to this solution and pre-incubated for 45 min at room temperature. The 96-well microplate was read in a microplate reader (Ensight Multimode Reader, Perkin Elmer) at 412 nm after adding DTNB and ATCI. The enzyme kinetic parameters were determined by incubating the substrate at multiple concentrations with or without test inhibitor by double-reciprocal (Lineweaver- Burk) plots in 0.09U of hAChE. From the Lineweaver-Burk plots, the inhibition mechanisms were measured graphically. The kinetics were performed using a series of concentrations of 4a to 4e and substrate AChI at 412 nm. The quantitative datas were expressed as mean ± SD results from three independent experiments. GraphPad Prism version 6.01 (GraphPad Software Inc., San Diego, USA) was used for regression analysis to calculate the IC50 values and the enzyme kinetic parameters (Km, Vmax). The IC50 and enzyme kinetics values (Vmax and Km) were calculated by this formula IC50 Y = min + max-min/1+(X/EC50)^−Hillslops. . Vmax and Km Y = Vmax∗X/(Km + X).
(§2) An evaluation of the therapeutic potential in the treatment of AD of target compounds 4a, 4b, 4c, 4d and 4e were measured for AChE inhibitory activity using the Ellman method. To find the inhibitory effects, the test compounds were incubated with multiple concentrations of human AChE. […] These compounds were designed from the trans-tephrostachin. It was isolated and structuraly characterized from Tephrosia purpurea in our previous studies. To investigate the mechanism of trans-tephrostachin derivatives against AChE, kinetic studies were conducted for all compounds. Such plots presented a secondary plot of Km/Vmax versus test compound concentrations for the Km and Vmax. […] Compound 4a is a trans-tephrostachin which was isolated and structurally characterized previously.

[2] = biological target: T1, Human acetycholinesterase (hAChE); assay: hAChE enzyme kinetics, Lineweaver-Burk and secondary plots; type: biochemical; conditions: for Vmax: hAChE in presence of inhibitor, without inhibitor 0.34 ± 0.01; for Inhibition type: hAChE, Lineweaver-Burk plots
Experimental: as §1, §2

AChE = test system: AChE; design: method as in PMID 17962731; conditions: AChE inhibition; cited from earlier work
[3] = human AChE, Ellman method, average of three sets of assays, read-out: IC50 Concentration
[4] = human AChE, secondary plot of Km/Vmax versus compound concentration, read-out: Ki

T1 sequence (P22303 32-614): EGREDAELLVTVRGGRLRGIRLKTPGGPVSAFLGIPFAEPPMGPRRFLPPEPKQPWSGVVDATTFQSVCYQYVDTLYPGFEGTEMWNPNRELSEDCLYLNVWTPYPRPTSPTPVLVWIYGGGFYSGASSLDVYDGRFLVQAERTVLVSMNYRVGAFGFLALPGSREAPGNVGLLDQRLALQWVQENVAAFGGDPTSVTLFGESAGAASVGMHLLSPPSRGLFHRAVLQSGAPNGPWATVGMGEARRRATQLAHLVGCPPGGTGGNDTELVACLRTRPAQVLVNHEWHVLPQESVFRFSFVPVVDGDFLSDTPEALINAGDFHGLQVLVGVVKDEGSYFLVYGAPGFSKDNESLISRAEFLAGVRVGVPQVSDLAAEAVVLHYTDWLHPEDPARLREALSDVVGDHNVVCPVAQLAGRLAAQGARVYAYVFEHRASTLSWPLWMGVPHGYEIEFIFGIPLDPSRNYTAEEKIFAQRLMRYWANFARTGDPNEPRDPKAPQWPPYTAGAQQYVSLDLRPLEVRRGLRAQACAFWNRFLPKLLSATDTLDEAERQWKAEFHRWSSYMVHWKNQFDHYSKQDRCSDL

Row | SMILES | IC50 [1, 3] | Vmax [2] | Inhibition type [2] | Ki [2, 4] | IC50 (AChE) | IC50 [1] | Ki [2]
1 | CCOc1cc(OCC)c2c(=O)cc(-c3ccccc3)oc2c1/C=C/C(C)(C)O [Compound 4b, (E)-5,7-diethoxy-8-(3-hydroxy-3-methylbut-1-en-1-yl)-2-phenyl-4H-chromen-4-one] | 35.6 ± 2.8 µM | 0.34 ± 0.01 | Competitive inhibition | 206 ± 12 µM | – | – | –
2 | O=C(/C=C/c1ccc(O)cc1)OC[C@H]1O[C@@H](Oc2c(-c3ccc(O)cc3)oc3cc(O)cc(O)c3c2=O)[C@H](O)[C@@H](O)[C@@H]1O [tiliroside] | – | – | – | – | 23.5 µM | – | –
3 | C[C@@H]1O[C@@H](Oc2c(-c3ccc(O)c(O)c3)oc3cc(O)cc(O)c3c2=O)[C@H](O)[C@H](O)[C@H]1O [quercitrin] | – | – | – | – | 66.9 µM | – | –
4 | COc1cc(OC)c2c(=O)cc(-c3ccccc3)oc2c1/C=C/C(C)(C)O [Compound 4a, (E)-8-(3-hydroxy-3-methylbut-1-en-1-yl)-5,7-dimethoxy-2-phenyl-4H-chromen-4-one] | 35 ± 1.2 µM | 0.13 ± 0.08 | mixed type inhibition | 29.3 ± 7.2 µM | – | – | –
5 | CC(=O)Oc1cc(OC(C)=O)c2c(=O)cc(-c3ccccc3)oc2c1/C=C/C(C)(C)O [Compound 4e, (E)-8-(3-hydroxy-3-methylbut-1-en-1-yl)-4-oxo-2-phenyl-4H-chromene-5,7-diyl diacetate] | 28.1 ± 2.1 µM | 0.36 ± 0.2 | Competitive inhibition | 198 ± 10.1 µM | – | – | –
6 | CC(C)(O)/C=C/c1c(OC(=O)c2ccc([N+](=O)[O-])cc2)cc(OC(=O)c2ccc([N+](=O)[O-])cc2)c2c(=O)cc(-c3ccccc3)oc12 [Compound 4d, (E)-8-(3-hydroxy-3-methylbut-1-en-1-yl)-4-oxo-2-phenyl-4H-chromene-5,7-diyl bis(4-nitrobenzoate)] | – | 0.15 ± 0.01 | mixed type inhibition | – | – | 10.3 µM | 8.25 ± 1.7 µM
8 | CC(C)(O)/C=C/c1c(OC(=O)c2ccccc2)cc(OC(=O)c2ccccc2)c2c(=O)cc(-c3ccccc3)oc12 [Compound 4c, (E)-8-(3-hydroxy-3-methylbut-1-en-1-yl)-4-oxo-2-phenyl-4H-chromene-5,7-diyl dibenzoate] | 10.6 ± 2.8 µM | 0.14 ± 0.1 | mixed type inhibition | 46.4 ± 9.5 µM | – | – | –
9 | C[n+]1c2n(c(=O)c3ccccc31)CCc1c-2[nH]c2ccccc12 [dehydroevodiamine] | – | – | – | – | 37.8 µM | – | –
